System: thymus tissue undergoing apoptosis
Assay: Tissue uptake in dexamethasone apoptosis mouse model
Assay type: in vivo
Conditions: dexamethasone-treated mice, 125I-labeled probe, radioactivity over time
Description: Graphs are for thymus, blood, muscle and liver.
Distribution studies were done in mice that were treated with dexamethazone (IP injection) to induce apoptosis in the thymus. This animal model is further described, e.g., in Casteels et al. “Sex Difference in Resistance to Dexamethasone-Induced Apoptosis in NOD Mice,” Diabetes, 47:1033-1037, 1998. AB53 was labeled with ^125I at the nitrophenol capping group.
Referring now to FIG. 6, data for the uptake of the probe in different tissues was obtained. Presented there are four graphs, one for thymus (FIG. 6A), one for blood (FIG. 6B) one for muscle (FIG. 6C) and one for liver (FIG. 6D), showing data from the in vivo uptake studies with ^125I-AB53. Graphs plot radioactivity as percent of initial dose/g of tissue from ^125I measured in different organs over time.

`Cc1cccc(C)c1C(=O)OCC(=O)[C@H](CC(=O)O)NC(=O)C1CCCN1C(=O)[C@H](Cc1ccc(-c2ccccc2)cc1)NC(=O)Cc1ccc([N+](=O)[O-])c(O)c1` (stereo partly shown) [AB53] was tested, and the “Probe uptake in thymus” value was “accumulates specifically in the thymus tissue that is undergoing apoptosis”.

Reference: US8343458B2, “Probes for in vivo targeting of active cysteine proteases” (The Board of Trustees of the Leland Stanford Junior …, priority 2008, dated 2013)
